This note sets out measurements from ChEMBL document CHEMBL1153831, “Azithromycin blocks quorum sensing and alginate polymer formation and increases the sensitivity to serum and stationary-growth-phase killing of Pseudomonas aeruginosa and attenuates chronic P. aeruginosa lung infection in Cftr(-/-) mice” (Antimicrob Agents Chemother, 2007).

As usually defined, the inhibition is how much of the control response was suppressed. Broadly, the MIC is the least concentration at which growth counts as inhibited.

Data set [1] relates to Pseudomonas aeruginosa. Nature of the data set: Antimicrobial activity in Pseudomonas aeruginosa NH57388A mucoid isolate harboring GFP-fused avian sarcoma virus lasB gene infected in ftr-tml-Unc-TgN(FABPCFTR) cystic fibrosis mouse lung assessed as debris-like granular material surrounding polymorphonuclear leukocytes at 500 mg/kg, po administered 24 hrs after infection daily once for 5 days measured after 7 days postinfection by histopathology. Type of data set: functional, organism-based. Further details: dose 500 mg/kg.

For data set [2], the system named is Pseudomonas aeruginosa. Put plainly: Antimicrobial activity against Pseudomonas aeruginosa NH57388A mucoid isolate assessed as reduction of viable count in stationary phase at 2 ug/mL after 8 hrs. Type of data set: functional.
Data set [3] relates to Pseudomonas aeruginosa. Put plainly: Inhibition of quorum sensing-regulated alginate production in Pseudomonas aeruginosa NH57388A mucoid isolate harboring GFP-fused […] lasB gene assessed as enzyme activity per cell at 4 ug/mL after 24 hrs relative to control. Type of data set: functional.
The test system of data set [4] is Pseudomonas aeruginosa. Nature of the data set: Antimicrobial activity against quorum sensing lasI-deficient isogenic nonmucoid Pseudomonas aeruginosa NH57388E mutant assessed as reduction of viable count at 12 ug/mL in presence of 2.5% human normal serum. Type of data set: functional.
Data set [5] deals with Pseudomonas aeruginosa. Put plainly: Inhibition of quorum sensing-regulated pyocyanin production in Pseudomonas aeruginosa NH57388A mucoid isolate harboring GFP-fused […] lasB gene assessed as enzyme activity per cell at 2 ug/mL after 24 hrs relative to control. Type of data set: functional.
Data set [6] deals with Pseudomonas aeruginosa. Put plainly: Antimicrobial activity in Pseudomonas aeruginosa NH57388A mucoid isolate harboring GFP-fused avian sarcoma virus lasB gene infected in ftr-tml-Unc-TgN(FABPCFTR) cystic fibrosis mouse lung assessed as scattered residues of alginate without bacteria at 500 mg/kg, po administered 24 hrs after infection daily once for 5 days measured after 7 days postinfection by histopathology. Type of data set: functional, organism-based. Set-up: dose 500 mg/kg.

A short description of data set [7]: Elimination half life in Cftr-tml-Unc-TgN(FABPCFTR) cystic fibrosis mouse model at 500 mg/kg, po. Type of data set: ADME, organism-based. Further details: dose 500 mg/kg, route oral. The following applies: in vivo, read-out: beta t1/2 (converted).
For data set [8], the system named is Pseudomonas aeruginosa. Put plainly: Inhibition of quorum sensing-regulated elastase production in Pseudomonas aeruginosa NH57388A mucoid isolate harboring GFP-fused […] lasB gene assessed as enzyme activity per cell at 2 ug/mL after 24 hrs relative to control. Type of data set: functional.
Data set [9] in a line: Drug level in Cftr-tml-Unc-TgN(FABPCFTR) cystic fibrosis mouse serum at 500 mg/kg, po after 0.5 hrs. Type of data set: ADME, organism-based. Set-up: dose 500 mg/kg, route oral. The following applies: read-out: Drug uptake.
Data set [10] is described as follows: Drug level in Cftr-tml-Unc-TgN(FABPCFTR) cystic fibrosis mouse serum at 500 mg/kg, po after 2 hrs. Type of data set: ADME, organism-based. Set-up: dose 500 mg/kg, route oral. The conditions noted are these: read-out: Drug uptake.
Data set [11] has as its system Pseudomonas aeruginosa. Put plainly: Inhibition of alginate synthesis in Pseudomonas aeruginosa NH57388A mucoid isolate supernatant assessed as uronic acid concentration in dialysis bag after exhaustive dialysis at 12 ug/mL after 24 hrs by carbazole-borate assay. Type of data set: functional.
Data set [12] deals with Pseudomonas aeruginosa. Nature of the data set: Increase in sensitivity of hydrogen peroxide to quorum sensing lasI-deficient isogenic Pseudomonas aeruginosa NH57388A mucoid isolate mutant assessed as increase in zone of inhibition at 12 ug/mL after 48 hrs relative to untreated bacterial control. Type of data set: functional. Further details: scale not given: the % may be the effect or the level left.

Data set [13] concerns Pseudomonas aeruginosa. Put plainly: Antimicrobial activity against Pseudomonas aeruginosa NH57388A mucoid isolate assessed as reduction of viable count in exponential phase at 64 ug/mL after 8 hrs. Type of data set: functional.
Data set [14] concerns Pseudomonas aeruginosa. Put plainly: Antimicrobial activity against Pseudomonas aeruginosa NH57388A mucoid isolate expressing quorum sensing lasI assessed as reduction of viable count at 12 ug/mL in presence of 2.5% human normal serum. Type of data set: functional.
Data set [15] deals with Pseudomonas aeruginosa. Nature of the data set: Antimicrobial activity in Pseudomonas aeruginosa NH57388A mucoid isolate harboring GFP-fused […] lasB gene infected in ftr-tml-Unc-TgN(FABPCFTR) cystic fibrosis mouse lungs assessed as median alginate content in lungs at 500 mg/kg, po administered 24 hrs after infection daily once for 5 days measured after 7 days postinfection. Type of data set: functional.

Data set [16] concerns Pseudomonas aeruginosa. Nature of the data set: Inhibition of quorum sensing-regulated chitinase production in Pseudomonas aeruginosa NH57388A mucoid isolate harboring GFP-fused […] lasB gene assessed as enzyme activity per cell at 2 ug/mL after 24 hrs relative to control. Type of data set: functional.
Data set [17] has as its system Pseudomonas aeruginosa. Nature of the data set: Antimicrobial activity against Pseudomonas aeruginosa NH57388A mucoid isolate after overnight incubation by E-test. Type of data set: functional.
Data set [18] concerns Pseudomonas aeruginosa. Nature of the data set: Antimicrobial activity against Pseudomonas aeruginosa NH57388A mucoid isolate harboring GFP-fused […] lasB gene infected in ftr-tml-Unc-TgN(FABPCFTR) cystic fibrosis mouse assessed as mortality at 500 mg/kg, po administered 24 hrs postinfection daily once for 5 days measured after 7 days postinfection. Type of data set: functional.

Data set [19] relates to Pseudomonas aeruginosa. Put plainly: Inhibition of quorum sensing-regulated pyocyanin production in Pseudomonas aeruginosa NH57388A mucoid isolate harboring GFP-fused […] lasB gene assessed as enzyme activity per cell at 4 ug/mL after 24 hrs relative to control. Type of data set: functional.
In data set [20] the test system is Pseudomonas aeruginosa. Nature of the data set: Inhibition of quorum sensing-regulated pyocyanin production in Pseudomonas aeruginosa NH57388A mucoid isolate harboring GFP-fused […] lasB gene assessed as enzyme activity per cell at 8 ug/mL after 24 hrs relative to control. Type of data set: functional.
The test system of data set [21] is Pseudomonas aeruginosa. Nature of the data set: Antimicrobial activity against Pseudomonas aeruginosa NH57388A mucoid isolate assessed as reduction of viable count in stationary phase at 16 ug/mL after 8 hrs. Type of data set: functional.
The test system of data set [22] is Pseudomonas aeruginosa. Nature of the data set: Antimicrobial activity in Pseudomonas aeruginosa NH57388A mucoid isolate harboring GFP-fused avian sarcoma virus lasB gene infected in ftr-tml-Unc-TgN(FABPCFTR) cystic fibrosis mouse assessed as frequency of lung abscesses at 500 mg/kg, po administered 24 hrs after infection daily once for 5 days measured after 7 days postinfection. Type of data set: functional.

Data set [23] in a line: Drug level in Cftr-tml-Unc-TgN(FABPCFTR) cystic fibrosis mouse serum at 500 mg/kg, po after 1 hr. Type of data set: ADME, organism-based. Set-up: dose 500 mg/kg, route oral. The conditions noted are these: read-out: Drug uptake.
The test system of data set [24] is Pseudomonas aeruginosa. Nature of the data set: Inhibition of alginate synthesis in Pseudomonas aeruginosa NH57388A mucoid isolate supernatant assessed as uronic acid concentration in inside of dialysis bag after equilibrium dialysis at 12 ug/mL after 24 hrs by carbazole-borate assay. Type of data set: functional. (In general: In equilibrium dialysis only unbound substance equilibrates across the membrane.)

Calls of active or inactive are those of the source. No cut-off for these calls is given here.

With `CC[C@H]1OC(=O)[C@H](C)[C@@H](O[C@H]2C[C@@](C)(OC)[C@@H](O)[C@H](C)O2)[C@H](C)[C@@H](O[C@@H]2O[C@H](C)C[C@H](N(C)C)[C@H]2O)[C@](C)(O)C[C@@H](C)CN(C)[C@H](C)[C@@H](O)[C@]1(C)O` [AZITHROMYCIN], the outcome in the data set with Pseudomonas aeruginosa [1] and in the data set on Pseudomonas aeruginosa [6] was Active. Besides, the Activity in the data set on Pseudomonas aeruginosa [2] was 88%; in the data set with Pseudomonas aeruginosa [11], 103 µg/mL; in the data set with Pseudomonas aeruginosa [12], 43%; with Pseudomonas aeruginosa [13], 87%; in the data set with Pseudomonas aeruginosa [15], 10 µg/mL; with Pseudomonas aeruginosa [18], 24%. The Activity is 99% with Pseudomonas aeruginosa [21], 32% in the data set on Pseudomonas aeruginosa [22] and 316 µg/mL with Pseudomonas aeruginosa [24]. For the same compound, the values for the inhibition at 4 µg/mL in the data set with Pseudomonas aeruginosa [3] and in the data set on Pseudomonas aeruginosa [19] were 56% and 32%, respectively. The CFU is on record as 2 ×10³ /ml in the data set with Pseudomonas aeruginosa [4] and 2.5 ×10² /ml in the data set with Pseudomonas aeruginosa [14]. Moreover, the inhibition at 2 µg/mL with Pseudomonas aeruginosa [5] stood at 43%; with Pseudomonas aeruginosa [8], 77%; with Pseudomonas aeruginosa [16], 66%. In [7], the half-life was 2.3 h. The concentration at 0.5 h in data set [9] was found to be 2900 ng/mL. Also, in data set [10], the concentration at 2 h came out at 3100 ng/mL. Further, in the data set with Pseudomonas aeruginosa [17], the minimal inhibitory concentration (MIC) is over 256 µg/mL. Besides, in the data set with Pseudomonas aeruginosa [20], the inhibition at 8 µg/mL was found to be 16%. The concentration at 1 h in data set [23] worked out at 2900 ng/mL.
